Results published in patent US7323318B2, “Assay for distinguishing live and dead cells” (priority 2004, dated 2008).

Assays:
population of cells = assay: Image-based live-dead cell assay using mean tubulin marker (DM1-α) intensity per cell
From the text: FIG. 1 presents two images of cells: a left image of a control population of cells treated with DMSO, and a right image of a test population of cells treated with the compound carbonyl cyanide 3-chlorophenylhydrazone (herein CCCP), a poison which acts on the cellular respiratory pathway. After treatment with DMSO or CCCP, the cells were fixed and stained with multiple markers. Three of these markers are shown in the image: red indicates DNA, blue indicates tubulin, and green indicates the trans-Golgi network. […] Note that individual cells are identified (whether alive or dead) by a small red area in the central region. This red area is associated with DNA in the cell nucleus. […] This is not necessarily an indication that the dead cells have increased levels of Golgi.
FIG. 2 presents a flowchart depicting one method for producing a model that can be used to determine whether an individual cell is live or dead. As shown in a block 203, the method begins by preparing the cell populations that are to be used for imaging. In certain embodiments, a sandwich culture is employed. In this preliminary operation, some cell populations are treated as controls (assumed to have a high fraction of cells that are alive) and other cell populations are treated as test samples (assumed to have a significant fraction of cells that are dead). Upon completion of treatment, cells are fixed and stained with appropriate markers. The test cells will all have been treated with a compound or other stimulus known to kill a significant percentage of the cells in a given population. Together, the control and test cell populations provide relatively large numbers of live and dead cells. The size of these populations should be large enough to provide a training set sufficient to generate a model that can reliably distinguish live cells from dead cells.
An exemplary two-step segmentation process is illustrated in FIGS. 3A and 3B. FIG. 3A presents the result of the first step. As shown there, two images (the left one for a control population treated with DMSO and the right one for a test population treated with 2.5 μM CCCP) show nuclei circled in the interiors of individual cells. Cellular DNA was stained with Hoechst […], which emits fluorescence at a wavelength selectively collected in the FIG. 3A image to permit identification of the individual nuclei. Each such nucleus is presumed to belong to a separate cell.
FIG. 3B presents the results of the second step of the cell segmentation procedure. As shown, the cell populations of FIG. 3A are again presented, but this time at the Alexa 647 channel (i.e., the bright regions in the image locate the source of radiation emitted at the wavelength of Alexa 647). […] The cell boundaries so identified are circled within the images. Each cell boundary defines a collection of pixels that are deemed to belong to a particular cell. For image processing those pixels are used extracting information about the particular cell in question.
After the boundaries of each cell have been identified, the appropriate live-dead indicator feature can be extracted on a cell-by-cell basis. See block 209. As indicated above, the intensity of a marker for tubulin (an indicator of local tubulin concentration within the cell) can be identified for each pixel in a given cell. Each cell will be characterized on the basis of its level of tubulin, whether based on an average value over all pixels in the cell, a maximum or minimum value within the cell, or some other indicator of tubulin quantity. In a preferred embodiment, the mean tubulin marker intensity is calculated over the pixels in a cell and the resulting value is employed as the live-dead indicator feature.
Additional images are presented in FIG. 3C, highlighting the marker DM1-α for tubulin. […] Note that live and dead cells can be usually distinguished by visual inspection. […]

[1] = tested on: live cells and dead cells; assay: Total cell area in live and dead cells (pixel count within segmented boundary); format: cell-based; conditions: FIG. 6B
Experimental: The area was determined from a pixel count within the boundary determined by segmentation. […] A simple consideration of the average cell area for all cells (including live cells and dead cells) would likely mask the fact that the higher concentrations of the drug cause dead cells to become progressively larger. The effect of the live cells masks, somewhat, the effect on the dead cells. […] Note that the average area of the live and dead cells together is shown as lines 611 in FIG. 6B. Note also that, as with the plot in FIG. 6A, the live cells were discriminated from dead cells using the mean DM1-α intensity of each cell.

[2] = tested on: TGN (trans-Golgi network); conditions: FIG. 6C; increasing concentrations
From the text: As with FIGS. 6A and 6B, the live-dead discrimination in FIG. 6C was made using mean DM1-α intensity (per cell).

For `N#CC(C#N)=NNc1cccc(Cl)c1` [CCCP, carbonyl cyanide 3-chlorophenylhydrazone], which “number of cells with significant tubulin concentration versus DMSO control” value (population of cells; FIG. 1, fixed and stained cells, tubulin marker (blue)) is on record?
Its value is “far fewer cells with significant tubulin concentration”.

What about the “percentage of dead cells versus DMSO control population” value (population of cells; FIG. 3C, 2.5 μM CCCP, DM1-α tubulin channel) of the same compound?
Its value is “far higher percentage of dead cells”.

And the “mean tubulin marker intensity per cell (histogram) versus control cells” value (population of cells; FIG. 4B, 0.625 μM to 5 μM CCCP for 24 hours, test cells pooled with control cells)?
The value was “a relatively large fraction of the cells have a mean tubulin marker intensity well below that associated with the control cells”.

And the “concentration at which the number of live cells begins to decrease” value (population of cells; FIG. 6A, normalized concentration, decrease at roughly the same rate as the dead cell increase)?
Its value is “about 0.5 μM”.

What about the “concentration at which the number of dead cells begins to increase dramatically” value (population of cells; FIG. 6A, normalized concentration, live/dead discriminated by mean DM1-α intensity, samples of around 800 cells) of the same compound?
The value was “about 0.5 μM”.

What about the “total number of cells (number of objects, DNA spots) across concentrations” value (population of cells; FIG. 6A, three samples of around 800 cells each) of the same compound?
The value was “remain approximately constant”.

For `O=C(O)Cc1ccccc1Nc1c(Cl)cccc1Cl` [diclofenac], which “total area of the live cells” value ([1]; beginning at approximately the same concentration (arbitrary 100)) is on record?
Its value is “gradually decreased”.

What about the “area of the dead cells” value ([1]; from the arbitrary concentration of 100 in the plot) of the same compound?
The value was “begins to increase rather dramatically”.

What does the source list for `Nc1c2c(nc3ccccc13)CCCC2` [tacrine]?
Golgi (TGN) marker intensity signal in dead cells [2]: relatively minimal affect; mean Golgi (TGN) marker intensity signal in live cells [2]: dramatically increase
